Source: BigSolDB 2.1

C[C@@H]1CC[C@@]2(OC1)O[C@H]1C[C@H]3[C@@H]4CC=C5C[C@@H](O)CC[C@]5(C)[C@H]4CC[C@]3(C)[C@H]1[C@@H]2C
Settings	solubility (mole fraction)
in acetone, 295.15 K	0.000904
in acetone, 302.15 K	0.00115
in acetone, 304.65 K	0.00127
in acetone, 308.15 K	0.0014
in acetone, 310.15 K	0.00149
in acetone, 312.15 K	0.00159
in acetone, 313.65 K	0.0017
in acetone, 315.65 K	0.00184
in acetone, 317.15 K	0.00194
in acetone, 319.15 K	0.00204
in acetone, 321.15 K	0.00217
in acetone, 322.65 K	0.0023
in acetone, 324.65 K	0.00243
in acetone, 326.65 K	0.00256
in acetone, 327.65 K	0.00267
in acetone, 329.15 K	0.00279
in acetone, 330.15 K	0.00292
in acetone, 332.15 K	0.00303
in ethanol, 299.15 K	0.00133
in ethanol, 303.15 K	0.00144
in ethanol, 306.15 K	0.00153
in ethanol, 308.65 K	0.00161
in ethanol, 311.65 K	0.00169
in ethanol, 313.65 K	0.00175
in ethanol, 315.65 K	0.00184
in ethanol, 317.15 K	0.00193
in ethanol, 319.15 K	0.002
in ethanol, 320.65 K	0.00208
in ethanol, 322.65 K	0.00215
in ethanol, 324.15 K	0.00224
in ethanol, 326.15 K	0.00233
in ethanol, 327.65 K	0.00241
in ethanol, 328.65 K	0.00249
in ethanol, 329.65 K	0.00258
in ethanol, 330.65 K	0.00268
in ethanol, 331.65 K	0.00276
in ethanol, 332.65 K	0.00284
in ethyl acetate, 300.65 K	0.0024
in ethyl acetate, 302.15 K	0.00258
in ethyl acetate, 303.15 K	0.00276
in ethyl acetate, 303.65 K	0.00294
in ethyl acetate, 305.15 K	0.00317
in ethyl acetate, 307.15 K	0.00338
in ethyl acetate, 308.65 K	0.0036
in ethyl acetate, 310.65 K	0.00383
in ethyl acetate, 311.65 K	0.00402
in ethyl acetate, 313.65 K	0.00423
in ethyl acetate, 315.65 K	0.00447
in ethyl acetate, 316.65 K	0.00466
in ethyl acetate, 318.15 K	0.00492
in ethyl acetate, 320.15 K	0.00523
in ethyl acetate, 321.65 K	0.00545
in ethyl acetate, 323.15 K	0.00577
in ethyl acetate, 324.65 K	0.00602
in ethyl acetate, 326.65 K	0.00628
in ethyl acetate, 327.65 K	0.0065
in ethyl acetate, 328.95 K	0.00673
in isopropanol, 293.15 K	0.000835
in isopropanol, 296.65 K	0.000975
in isopropanol, 300.65 K	0.00111
in isopropanol, 303.15 K	0.00123
in isopropanol, 304.65 K	0.00134
in isopropanol, 306.65 K	0.00145
in isopropanol, 308.65 K	0.00157
in isopropanol, 311.15 K	0.00167
in isopropanol, 314.65 K	0.00178
in isopropanol, 317.15 K	0.00192
in isopropanol, 319.15 K	0.00203
in isopropanol, 321.15 K	0.00216
in isopropanol, 324.65 K	0.0023
in isopropanol, 326.15 K	0.00241
in isopropanol, 328.15 K	0.00253
in isopropanol, 330.15 K	0.00267
in isopropanol, 332.15 K	0.00282
in methanol, 291.15 K	0.000187
in methanol, 298.15 K	0.000257
in methanol, 300.15 K	0.000325
in methanol, 308.15 K	0.000401
in methanol, 312.65 K	0.000469
in methanol, 315.15 K	0.00051
in methanol, 317.65 K	0.000556
in methanol, 319.65 K	0.0006
in methanol, 322.15 K	0.000643
in methanol, 323.65 K	0.000694
in methanol, 325.65 K	0.000743
in methanol, 327.15 K	0.000795
in methanol, 328.15 K	0.000847
in methanol, 329.15 K	0.00091
in methanol, 331.65 K	0.000994
in n-propyl acetate, 296.15 K	0.0021
in n-propyl acetate, 300.15 K	0.00263
in n-propyl acetate, 306.65 K	0.00313
in n-propyl acetate, 307.15 K	0.00321
in n-propyl acetate, 310.15 K	0.00356
in n-propyl acetate, 314.65 K	0.00402
in n-propyl acetate, 317.65 K	0.00442
in n-propyl acetate, 319.65 K	0.0047
in n-propyl acetate, 322.15 K	0.00495
in n-propyl acetate, 323.65 K	0.0053
in n-propyl acetate, 325.15 K	0.00543
in n-propyl acetate, 327.15 K	0.00575
in n-propyl acetate, 328.65 K	0.00616
in n-propyl acetate, 329.15 K	0.00612
